# Assay results taken from patent US20080269266A1, “NOVEL COMPOUNDS 747” (ASTRAZENECA AB, priority 2007, published 2008).
# What was measured:
# [1] = target: T1, human cytochrome P450 (CYP) 2C19 (Homo sapiens, UniProt P33261); assay: Cytochrome P450 Inhibition Assay 2C19; type: in vitro ADME; conditions: read-out: IC50 range, CYP 2C19
# T1 construct: made in house; host or cells: yeast cell lines (microsomal fractions)
# Procedure: The inhibitory potential (IC50) of test compounds against 5 human cytochrome P450 (CYP) isoforms (1A2, 2C9, 2C19, 3A4 and 2D6) was assessed using an automated fluorescent end point in vitro assay modified from Crespi (Crespi and Stresser, 2000). Microsomal subcellular fractions prepared from Yeast cell lines expressing each human CYP isoform were used as an enzyme source in this assay. The activity of the 5 major human CYPs was determined from the biotransformation of a number of coumarin substrates to fluorescent metabolites, in the presence of NADPH. […] Stock solutions of each CYP, with its respective substrate, were prepared in phosphate buffer pH7.4 (see Table 1) and 178 μl was added to the well of a black solid, flat bottom, 300 μl 96 well is microtitre plate (Corning Costar). […] After pre-incubating at 37° C. for 5 min the reactions were started with addition of NADPH (20 μl, concentration shown in Table 1). The final solvent content in each incubation was <=2% (1% from the test compound and a maximum of 1% from the substrate). The appropriate solvent controls and substrate blanks were included in each experiment to assess control activity and identify any inherent fluorescence due to the test compounds. In addition, known inhibitors of each CYP were included as positive controls (see Table 3 for inhibitor concentrations and expected IC50 ranges). The reactions were stopped at defined timepoints (see Table 1) by quenching with 100 μl of solvent (acetonitrile:0.5M Tris buffer 80:20 v/v). The plates were read on a fluorimeter (Spectrafluor Plus) at the appropriate excitation and emission wavelengths (listed in Table 2) and the percent activity, corrected for control, was plotted against the test compound concentration.
# [2] = Solubility in 0.1 M phosphate buffer pH 7.4; type: physicochemical; conditions: pH 7.4, 24 h, 25° C.
# Procedure: Solubility values are determined by agitation of compounds in 0.1 M phosphate buffer at pH 7.4 for 24 h at 25° C. The supernatant is separated from undissolved material by double centrifugation and subsequently analyzed and quantified against a standard of known concentration in DMSO using generic HPLC-UV methodology coupled with mass spectral peak identification (J. Med. Chem., 2006, 49(23), 6672-6682).
# T1 sequence (P33261 whole entry): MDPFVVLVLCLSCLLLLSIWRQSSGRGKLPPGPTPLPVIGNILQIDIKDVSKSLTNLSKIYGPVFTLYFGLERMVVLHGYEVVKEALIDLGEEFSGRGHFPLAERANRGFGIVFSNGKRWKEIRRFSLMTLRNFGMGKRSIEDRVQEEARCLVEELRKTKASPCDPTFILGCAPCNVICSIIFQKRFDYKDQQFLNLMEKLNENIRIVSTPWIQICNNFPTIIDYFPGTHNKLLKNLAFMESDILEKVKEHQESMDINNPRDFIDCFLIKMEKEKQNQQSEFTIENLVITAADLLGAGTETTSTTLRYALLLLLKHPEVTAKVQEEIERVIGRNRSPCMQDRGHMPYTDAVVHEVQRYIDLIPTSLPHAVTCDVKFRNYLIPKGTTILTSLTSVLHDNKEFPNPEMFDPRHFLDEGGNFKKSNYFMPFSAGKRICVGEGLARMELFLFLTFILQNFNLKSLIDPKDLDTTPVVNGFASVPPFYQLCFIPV
IC50 [1] [µM],Solubility [2],SMILES
1.5 to 4.6,–,COc1ccc2[nH]c([S+]([O-])Cc3ncc(C)c(OC)c3C)nc2c1 (centres unmarked) [Omeprazole]
–,around 18 μM,"COc1cc(Nc2cc(C)n[nH]2)nc(N2CCC[C@H]2c2cc(-c3ncccn3)no2)n1 [mixture of Forms 1 and 3, (S)-6-Methoxy-2-{2-[3-(pyrimid-2-yl)isoxazol-5-yl]pyrrolidin-1-yl}-4-(5-methyl-1H-pyrazol-3-ylamino)pyrimidine]"
